Results from patent US20080070264A1, “Intracellular Signaling-Induced Ret-Independent Gdnf Receptor-Effected Morphological Changes” (JPMORGAN CHASE BANK N.A., priority 2003, published 2008).

Key:
MET [1] = experiment: MET phosphorylation in MDCK cells (immunoprecipitation, Western blotting); assay type: cell-based, dog
Description: (§1) To detect MET activation, GFRα1- and RET/GFRα1-expressing MDCK or SHEP cells were starved overnight in MEM or RPMI 1640 with 1% FCS, respectively, and in serum-free medium for 2 h prior the induction. After 15 min incubation at 37° C. with GDNF (at indicated concentrations) or with 50 ng/ml HGF, cells were lysed as described. Cleared cell lysates were incubated with anti-MET antibodies (Santa Cruz Biotechnologies, Inc.) overnight at 4° C. Immunoprecipitates were collected with protein A-SEPHAROSE (Amersham Pharmacia Biotech), washed, separated by SDS-PAGE and transferred to HYBOND-ECL membranes. Membranes were immunoblotted with anti-phospho-tyrosine antibodies (Upstate Group Inc.) or anti-MET antibodies.
Alternatively, 30 μg of protein was incubated overnight at 4° C. with 10 μl Immobilized Phospho-Tyrosine Monoclonal Antibodies (Cell Signalling, NEB). Immunocomplexes were washed and analysed as described.
(§2) For all experiments, densitometry and quantifications were performed using TINA 2.0 program (Raytest, Straubenhardt, Germany).
(§3) For the inhibition of MET, and Src activation, SHEP or GFRα1- and RET/GFRα1-expressing MDCK cells were starved as described above. 1 or […] of the inhibitor PP2 (Calbiochem) was added 30 min before induction by GDNF or HGF. DMSO (dimethyl sulfoxide) was added to the positive controls together with GDNF or HGF.

MET [2] = experiment: MET phosphorylation in SHEP neuroblastoma cells; assay type: cell-based, human; conditions: SHEP cells
Description: FIG. 7B: SHEP cells were grown with GDNF (10 ng/ml (lanes 2-4) or 5 pg/ml (lanes 5-7)) or HGF (10 ng/ml (lanes 8-9)) in the presence of PP2 (1 μM (lanes 3 and 6) and 10 μM (lanes 4 and 7)). To exclude a possible cytotoxic effect of the solvent, DMSO was added to the controls. […] The numbers below the lane indicate the fold of induction of MET tyrosine kinase. The results are representative of three independent experiments.
as §1, §2, §3

wild-type MDCK cells [3] = conditions: Stoker et al., 1987; cited from earlier work
wild-type MDCK cells [4] = experiment: Branching tubule formation assay in 3-D collagen gel; assay type: cell-based, dog; conditions: 3-D collagen gel
Description: (§4) From the total amount of cysts in the field, the percentage of cysts with long branches was calculated. Only branches with lengths of more than two cyst diameters were counted.
(§5) Trypsinized cells were mixed 1:3 with collagen type I solution and plated. MEM with 10% FCS was overlaid on the gels with or without GDNF (Cephalon Inc. or R&D Systems, Inc.) or 50 ng/ml HGF. Cells in collagen were cultured for 3 days; GDNF-containing medium was changed daily. For quantification, cells were cultured for 3 days, fixed by 3% glutaraldehyde in PBS and counted under a light microscope.
(§6) To avoid the effect of possible contamination of GDNF preparation, recombinant GDNF from two different sources were tested. One tested GDNF was expressed in baculovirus-infected insect cells (Cephalon Inc.), the other was expressed in mouse myeloma cell line NSO (R&D Systems, Inc.).

MET [5] = target: MET (Homo sapiens, UniProt P08581); conditions: Villa-Moruzzi et al., 1993; cited from earlier work
Sequence of MET (Homo sapiens, UniProt P08581) (P08581 25-1390): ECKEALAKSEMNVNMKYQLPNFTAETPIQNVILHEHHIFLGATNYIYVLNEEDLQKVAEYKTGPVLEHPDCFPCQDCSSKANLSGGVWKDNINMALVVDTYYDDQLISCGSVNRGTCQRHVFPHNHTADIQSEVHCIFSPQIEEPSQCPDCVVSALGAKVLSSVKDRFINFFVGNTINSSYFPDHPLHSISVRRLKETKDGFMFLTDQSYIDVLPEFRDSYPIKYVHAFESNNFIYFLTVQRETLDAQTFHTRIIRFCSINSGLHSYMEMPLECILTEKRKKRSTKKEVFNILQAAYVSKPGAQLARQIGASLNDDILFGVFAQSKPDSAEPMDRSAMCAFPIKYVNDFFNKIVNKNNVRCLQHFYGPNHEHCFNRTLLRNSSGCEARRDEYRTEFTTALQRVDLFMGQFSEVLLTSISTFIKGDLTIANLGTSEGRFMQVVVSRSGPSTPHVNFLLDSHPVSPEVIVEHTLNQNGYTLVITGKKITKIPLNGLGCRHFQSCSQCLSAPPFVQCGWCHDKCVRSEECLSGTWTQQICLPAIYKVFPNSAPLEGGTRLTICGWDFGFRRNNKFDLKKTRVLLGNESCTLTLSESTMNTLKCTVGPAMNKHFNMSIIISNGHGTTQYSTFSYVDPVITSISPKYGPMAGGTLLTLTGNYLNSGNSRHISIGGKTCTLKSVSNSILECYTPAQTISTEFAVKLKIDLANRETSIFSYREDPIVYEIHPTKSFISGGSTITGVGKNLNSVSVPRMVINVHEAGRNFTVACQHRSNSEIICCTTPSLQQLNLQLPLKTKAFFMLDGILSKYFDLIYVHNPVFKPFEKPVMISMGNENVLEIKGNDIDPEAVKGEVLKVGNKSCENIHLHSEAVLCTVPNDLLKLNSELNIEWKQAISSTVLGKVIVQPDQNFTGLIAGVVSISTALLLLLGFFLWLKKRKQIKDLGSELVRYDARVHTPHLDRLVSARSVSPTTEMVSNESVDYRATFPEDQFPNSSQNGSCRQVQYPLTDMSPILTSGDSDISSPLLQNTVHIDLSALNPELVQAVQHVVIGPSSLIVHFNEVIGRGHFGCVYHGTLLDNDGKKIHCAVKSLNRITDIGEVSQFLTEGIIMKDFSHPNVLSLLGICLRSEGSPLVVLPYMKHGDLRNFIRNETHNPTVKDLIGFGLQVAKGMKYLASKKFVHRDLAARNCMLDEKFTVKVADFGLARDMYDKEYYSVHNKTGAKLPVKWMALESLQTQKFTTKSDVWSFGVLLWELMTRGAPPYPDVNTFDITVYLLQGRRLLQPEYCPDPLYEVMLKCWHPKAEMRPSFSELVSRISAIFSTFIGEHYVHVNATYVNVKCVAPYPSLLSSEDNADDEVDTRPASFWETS

MET [6] = target: T1, MET (Chlorocebus aethiops, UniProt Q2IBA6); experiment: 125I-labelled GDNF and HGF binding, chemical crosslinking, anti-MET immunoprecipitation
T1 construct: different combinations of the MET β-subunit (140 kDa), Met-αβ heterodimer (190 kDa) and HGF complexes; endogenous in cells; host or cells: COS7 cells (wild type for 125I-HGF; transfected with pc3-GFRα1/GFP for 125I-GDNF)
T1 sequence (Q2IBA6 25-1381): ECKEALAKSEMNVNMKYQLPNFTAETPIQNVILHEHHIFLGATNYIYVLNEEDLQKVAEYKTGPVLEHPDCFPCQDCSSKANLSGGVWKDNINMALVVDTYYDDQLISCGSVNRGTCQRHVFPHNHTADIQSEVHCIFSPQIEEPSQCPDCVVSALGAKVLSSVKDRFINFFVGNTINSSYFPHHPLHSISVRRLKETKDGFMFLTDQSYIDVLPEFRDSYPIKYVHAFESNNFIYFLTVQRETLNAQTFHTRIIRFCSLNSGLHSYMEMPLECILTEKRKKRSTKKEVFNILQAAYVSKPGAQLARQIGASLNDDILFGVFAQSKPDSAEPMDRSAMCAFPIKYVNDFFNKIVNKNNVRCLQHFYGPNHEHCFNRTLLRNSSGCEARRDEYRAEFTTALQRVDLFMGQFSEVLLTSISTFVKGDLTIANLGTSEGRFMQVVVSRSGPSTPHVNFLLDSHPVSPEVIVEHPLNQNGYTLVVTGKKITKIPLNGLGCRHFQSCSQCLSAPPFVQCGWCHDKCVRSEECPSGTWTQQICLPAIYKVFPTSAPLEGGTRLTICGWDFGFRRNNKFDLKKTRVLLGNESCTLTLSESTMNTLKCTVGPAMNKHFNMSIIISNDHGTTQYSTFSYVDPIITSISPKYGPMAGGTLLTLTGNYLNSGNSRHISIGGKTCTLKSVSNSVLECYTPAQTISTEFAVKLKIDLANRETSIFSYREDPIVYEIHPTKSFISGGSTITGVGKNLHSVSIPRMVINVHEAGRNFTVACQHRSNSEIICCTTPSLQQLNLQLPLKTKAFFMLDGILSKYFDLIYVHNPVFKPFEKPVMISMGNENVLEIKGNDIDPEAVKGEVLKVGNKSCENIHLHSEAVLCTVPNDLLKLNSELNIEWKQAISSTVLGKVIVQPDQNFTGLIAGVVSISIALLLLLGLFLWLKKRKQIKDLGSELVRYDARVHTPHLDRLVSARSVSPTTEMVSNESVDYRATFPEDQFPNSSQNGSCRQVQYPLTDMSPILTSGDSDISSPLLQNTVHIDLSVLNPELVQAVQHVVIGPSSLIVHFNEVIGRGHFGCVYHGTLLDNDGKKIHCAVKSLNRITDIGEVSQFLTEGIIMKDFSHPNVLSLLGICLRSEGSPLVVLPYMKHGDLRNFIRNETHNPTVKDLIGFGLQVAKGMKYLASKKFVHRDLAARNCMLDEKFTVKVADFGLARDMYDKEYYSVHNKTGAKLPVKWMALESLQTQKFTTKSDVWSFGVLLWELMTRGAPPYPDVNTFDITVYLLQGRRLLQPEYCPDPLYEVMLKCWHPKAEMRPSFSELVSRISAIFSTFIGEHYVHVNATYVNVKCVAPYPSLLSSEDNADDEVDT
Description: Binding of ^125I-GDNF to COS7 cells transfected with GFRα1, and ^125-HGF to wild-type COS7, followed by cross-linking with EDC together with sulfo-NHS. Inmunoprecipitates with anti-MET antibodies (IP-Met) were analysed by SDS-PAGE under reducing conditions. ^125I-HGF α subunit and proHGF are marked by arrows. ^125I-HGF/MET complexes are denoted by arrow heads. The results are representative of five independent experiments.
GDNF and HGF were enzymatically iodinated with [^125I]NaI (Amersham Pharmacia Biotech) with lactoperoxidase to a specific activity of 100.000 cpm/ng as described (31). COS7 cells were transfected with pc3-GFRα1/GFP two days prior the assay. 2 nM of ^125I-GDNF or 1 nM of ^125I-HGF were allowed to bind to cell monolayers for 1-2 h on ice in binding buffer (DMEM/15 mM HEPES, pH 7.5; 0.2% BSA), washed, and chemically cross-linked for 30 min at room temperature using BS^3 ([Bis(sulfosuccinimidyl)suberate]), DSS ((Disulfosuccinimidyl)suberate), DSP (3,3-Dithio-bis-(sulfosuccinimidyl)propionate) or EDC ((1-Ethyl-3-[3-dimethylaminopropyl]carbodiimide Hydrochloride)) with sulfo-NHS (N-Hydroxysulfosuccinimide) (Pierce). The non-specific binding of GDNF was estimated by the amount of ^125I-GDNF binding to cells in the presence of 300 n M unlabeled GDNF. Cells were washed, lysed and immunoprecipitated with anti-MET antibodies as described. Gels were dried and analyzed by phosphorimaging in a BAS Reader 1800 (Fuji).

[7] = tested on: GFRα1-expressing MDCK cells; experiment: Branching tubule formation assay in 3-D collagen gel; assay type: cell-based, dog; conditions: ligand 100 ng/ml; 3-D collagen gel
Description: as §4
(§7) FIG. 2C: Dose-dependence of GDNF-induced branching of GFRα1- and RET/GFRα1-expressing MDCK cells. GDNF concentrations are per ml (x-axis). Results are reported as fold of branching cysts count over the non-induced control. Means±standard errors of the mean of five to eight counted fields are shown. The results are representative of five (A and B) and three (C) independent experiments, p<0.001.
as §5, §6

[8] = tested on: RET/GFRα1-expressing MDCK cells; experiment: as above; assay type: cell-based, dog; conditions: ligand 100 ng/ml; 3-D collagen gel
Description: as §4, §7, §5, §6

[9] = GFRα1- and RET/GFRα1-expressing MDCK cells, data not shown

## CC(C)(C)n1nc(-c2ccc(Cl)cc2)c2c(N)ncnc21 [PP2, reference compound]
MET [1]; [9]
  effect on GDNF-induced MET activation: inhibited
  effect on HGF-induced MET phosphorylation: but not the HGF-induced MET phosphorylation
MET [2]; PP2 1 μM
  effect on GDNF-dependent phosphorylation of MET: strongly reduced
MET [2]
  effect on HGF-induced MET phosphorylation: did not affect

## HGF: hepatocyte growth factor (Sigma); binds to and activates MET receptor tyrosine kinase
wild-type MDCK cells [3]
  chemotaxis: induces chemotaxis
MET [1]; mock-transfected MDCK cells
  MET phosphorylation: only HGF phosphorylated MET
wild-type MDCK cells [4]; HGF 50 ng/ml
  branching tubule formation: only branch on exposure to HGF
MET [5]
  concentration at which MET is saturated: 0.5 nM

## ^125I-HGF: HGF enzymatically iodinated with [125I]NaI with lactoperoxidase [reference compound]
MET [6]; COS7 cells, reducing conditions, positive control
  cross-linked complexes with MET: approximately 200 kDa, 250 kDa and 340 kDa complexes

B1: PSPN: persephin, the ligand for GFRα4, not known to interact with GFRα1 (protein, UniProt O60542 22-156, looked up)
Persephin: WGPDARGVPVADGEFSSEQVAKAGGTWLGTHRPLARLRRALSGPCQLWSLTLSVAELGLGYASEEKVIFRYCAGSCPRGARTQHGLALARLQGQGRAHGGPCCRPTRYTDVAFLDDRHRWQRLPQLSAAACGCGG
wild-type MDCK cells [4]; ligand 100 ng/ml
  branching tubule formation: does not induce branching
[7]
  branching tubule formation: did not evoke branching
[8]
  branching tubule formation: did not evoke branching

B2: ^125I-GDNF: GDNF enzymatically iodinated with [125I]NaI with lactoperoxidase (protein, UniProt P39905 78-211, looked up)
Glial cell line-derived …: SPDKQMAVLPRRERNRQAAAANPENSRGKGRRGQRGKNRGCVLTAIHLNVTDLGLGYETKEELIFRYCSGSCDAAETTYDKILKNLSRNRRLVSDKVGQACCRPIAFDDDLSFLDDNLVYHILRKHSAKRCGCI
modifications: 125I label
notes: GDNF enzymatically iodinated with [125I]NaI with lactoperoxidase
MET [6]; GFRα1-expressing MDCK, SHEP or COS7 cells, and NIH 3T3 cells transiently transfected with GFRα1, EDC with sulfo-NHS, BS3, DSS, DSP
  cross-linked complexes with MET: No high molecular weight complexes were revealed
